Measured values taken from patent US11415579B2, “Assay for measuring a rate of reaction between a target and a ligand candidate” (Imperial College Innovations Ltd., priority 2016, dated 2022).

Tests used:
[1] = Kinetic thiol consumption assay with model thiol glutathione; type: physicochemical; set-up: Rate constant with glutathione (k(GSH)): unit not given here; conditions: for Rate constant with glutathione (k(GSH)): 500 μM ligand, 5 μM thiol, phosphate buffer pH 8; for Rate constant with Glutathione: Protein: Glutathione, cysteine position NA, in h-1
Experimental: (§1) A library of 120 acrylamides was screened against a) human cyclin-dependent kinase 2 (Cdk2, which contains one surface exposed cysteine residue—C177), prepared by cloning cDNA into the pRSETA bacterial expression vector to generate a poly-histidine tagged Cdk2 fusion that was purified from E. coli using standard techniques, and b) a model thiol (specific details are given below). The structures of these 120 acrylamides are set out in Table 1, above.
(§2) To wells containing 150 μL thiol (Cdk2 or model thiol) (5 μM) in degassed phosphate buffer (pH 8) was added immobilized TCEP beads (2% v/v).
(§3) After incubation of the fluorescence plates for 1 hour at room temperature, fluorescence measurements (excitation/emission of 380/470 nm) were taken on a PerkinElmer EnVision multilabel plate reader and processed with EnVision Workstation version 1.12.
(§4) Fluorescence measurements were normalized against a DMSO/thiol only control and plotted against time.
(§5) Rate constants were calculated using GraphPad software Prism version 6 by fitting a first order exponential decay to the data. The rate constant for each acrylamide with Cdk2 was divided by the rate constant for that fragment with the model thiol to provide the rate enhancement for each ligand candidate.
The model thiol in Example 1 is glutathione (GSH). Hits were defined as fragments where kCdk2/kGSH>5.8 (empirically determined as 3 standard deviations over the mean).

[2] = target: T1, human cyclin-dependent kinase 2 (Cdk2) (Homo sapiens, UniProt P24941); assay: Kinetic thiol consumption assay with wild type Cdk2 (C177); type: binding; set-up: key to Rate enhancement, Cdk2 WT: k(Cdk2) divided by k(model thiol); Rate constant with Cdk2 (k(Cdk2)): unit not given here; conditions: for Rate constant with Cdk2 (k(Cdk2)): 500 μM ligand, 5 μM thiol, phosphate buffer pH 8; for k(Cdk2)/k(GSH) rate enhancement: model thiol glutathione; for Rate enhancement, Cdk2 WT: no additional mutations; for Rate constant with Cdk2 WT: Protein: Cdk2, cysteine position WT, in h^-1
T1 construct: poly-histidine; made in house; host or cells: E. coli
Experimental: as §1, §2, §3, §4, §5

Cdk2[C177A, F80C, K278C] = target: T2, Cdk2[C177A, F80C, K278C] (Homo sapiens, UniProt P24941, C177A/F80C/K278C); assay: Kinetic thiol consumption assay with mutant Cdk2 as model thiol; type: binding; set-up: unit not given here; conditions: 500 μM ligand, 5 μM thiol, phosphate buffer pH 8
T2 construct: poly-histidine; made in house; host or cells: E. coli
Experimental: as §1, §2, §3, §4, §5
The model thiol used in Example 2 is a mutant form of human Cdk2 (C177A, F80C, K278C) which contains two engineered surface exposed cysteine residues. Mutations were introduced by site-directed mutagenesis and the resulting cDNA was cloned into the pRSETA bacterial expression vector to generate a poly-histidine tagged Cdk2 fusion that was purified from E. coli using standard techniques.

Cdk2(C177A, F80C) = target: T3, Cdk2(C177A, F80C) (Homo sapiens, UniProt P24941, C177A/F80C); assay: Kinetic thiol consumption assay with Cdk2 mutant F80C, incl. kobs versus concentration (Kd, k2); type: binding; set-up: key to Rate enhancement, Cdk2 F80C: Cdk2 rate constant divided by model-thiol rate constant; conditions: additional mutation C177A
T3 construct: poly-histidine; made in house; host or cells: E. coli
Experimental: Therefore the assay can be used to calculate both k2 and Kd by experimentally determining kobs at a suitable range of ligand candidate concentrations. Typically Kd and k2 would then be determined by fitting a hyperbolic curve to a plot of kobs against ligand candidate concentration (FIG. 9).
as §2, §3, §4, §5
(§6) A further set of set of additional Cdk2 mutants were screened, all containing the C177A mutation and therefore with only one cysteine on the surface: • F80C (without the K278C mutation) • H71C • S276C • N272 • T182C • R122C • S181C
(§7) Mutations were introduced by site-directed mutagenesis and the resulting cDNA was cloned into the pRSETA bacterial expression vector to generate a poly-histidine tagged Cdk2 fusion that was purified from E. coli using standard techniques.
Rate constants were calculated as described in the methodology section of Examples 1 and 2.

Cdk2(H71C) (C177A) = target: T4, Cdk2(H71C) (C177A) (Homo sapiens, UniProt P24941, C177A/H71C); assay: Kinetic thiol consumption assay with Cdk2 mutant H71C; type: binding; set-up: key to Rate enhancement, Cdk2 H71C: rate constant with Cdk2 ÷ rate constant with model thiol (fold); conditions: additional mutation C177A; for Rate constant with Cdk2 H71C: Protein: Cdk2, cysteine position H71C, in h^-1
T4 construct: poly-histidine; made in house; host or cells: E. coli
Experimental: as §2, §3, §4, §5, §6, §7

Cdk2(S276C) (C177A) = target: T5, Cdk2(S276C) (C177A) (Homo sapiens, UniProt P24941, C177A/S276C); assay: Kinetic thiol consumption assay with Cdk2 mutant S276C; type: binding; set-up: key to Rate enhancement, Cdk2 S276C: rate constant with Cdk2 ÷ rate constant with model thiol (fold); conditions: additional mutation C177A; for Rate constant with Cdk2 S276C: Protein: Cdk2, cysteine position S276C, in h^-1
T5 construct: poly-histidine; made in house; host or cells: E. coli
Experimental: as §2, §3, §4, §5, §6, §7

Cdk2(N272C) (C177A) = target: T6, Cdk2(N272C) (C177A) (Homo sapiens, UniProt P24941, C177A/N272C); assay: Kinetic thiol consumption assay with Cdk2 mutant N272C; type: binding; set-up: key to Rate enhancement, Cdk2 N272: rate constant with Cdk2 ÷ rate constant with model thiol (fold); conditions: for Rate enhancement, Cdk2 N272: Cdk2 N272, additional mutation C177A; for Rate constant with Cdk2 N272C: Protein: Cdk2, cysteine position N272C, additional mutation C177A, in h^-1
T6 construct: poly-histidine; made in house; host or cells: E. coli
Experimental: as §2, §3, §4, §5, §6, §7

Cdk2(T182C) (C177A) = target: T7, Cdk2(T182C) (C177A) (Homo sapiens, UniProt P24941, C177A/T182C); assay: Kinetic thiol consumption assay with Cdk2 mutant T182C; type: binding; set-up: key to Rate enhancement, Cdk2 T182C: rate constant with Cdk2 ÷ rate constant with model thiol (fold); conditions: additional mutation C177A; for Rate constant with Cdk2 T182C: Protein: Cdk2, cysteine position T182C, in h^-1
T7 construct: poly-histidine; made in house; host or cells: E. coli
Experimental: as §2, §3, §4, §5, §6, §7

Cdk2(R122C) (C177A) = target: T8, Cdk2(R122C) (C177A) (Homo sapiens, UniProt P24941, C177A/R122C); assay: Kinetic thiol consumption assay with Cdk2 mutant R122C; type: binding; set-up: key to Rate enhancement, Cdk2 R122C: rate constant with Cdk2 ÷ rate constant with model thiol (fold); conditions: additional mutation C177A; for Rate constant with Cdk2 R122C: Protein: Cdk2, cysteine position R122C, in h-1
T8 construct: poly-histidine; made in house; host or cells: E. coli
Experimental: as §2, §3, §4, §5, §6, §7

Cdk2(S181C) (C177A) = target: T9, Cdk2(S181C) (C177A) (Homo sapiens, UniProt P24941, C177A/S181C); assay: Kinetic thiol consumption assay with Cdk2 mutant S181C; type: binding; set-up: key to Rate enhancement, Cdk2 S181C: rate constant with Cdk2 ÷ rate constant with model thiol (fold); conditions: additional mutation C177A; for Rate constant with Cdk2 S181C: Protein: Cdk2, cysteine position S181C, in h^-1
T9 construct: poly-histidine; made in house; host or cells: E. coli
Experimental: as §2, §3, §4, §5, §6, §7

Row | Rate constant with Cdk2 (k(Cdk2)) [2] | k(Cdk2)/k(GSH) rate enhancement [2] | Rate enhancement, Cdk2 WT [2] | Rate constant with Cdk2 WT [2] | Rate enhancement, Cdk2 F80C (Cdk2(C177A, F80C)) | Rate enhancement, Cdk2 H71C (Cdk2(H71C) (C177A)) | Rate enhancement, Cdk2 S276C (Cdk2(S276C) (C177A)) | Rate enhancement, Cdk2 N272 (Cdk2(N272C) (C177A)) | Rate constant with Cdk2 N272C (Cdk2(N272C) (C177A)) | Rate enhancement, Cdk2 T182C (Cdk2(T182C) (C177A)) | Rate constant with Cdk2 T182C (Cdk2(T182C) (C177A)) | Rate enhancement, Cdk2 R122C (Cdk2(R122C) (C177A)) | Rate constant with Cdk2 R122C (Cdk2(R122C) (C177A)) | Rate enhancement, Cdk2 S181C (Cdk2(S181C) (C177A)) | Rate constant with Cdk2 S181C (Cdk2(S181C) (C177A)) | SMILES | Rate constant with glutathione (k(GSH)) [1] | Rate constant with Glutathione [1] | Rate constant with Cdk2 H71C (Cdk2(H71C) (C177A)) | Rate constant with Cdk2 S276C (Cdk2(S276C) (C177A)) | further results
1 | 0.00274 | 0.3553 |  |  |  |  |  |  |  |  |  |  |  |  |  | C=CC(=O)N1CCC2(CC1)NC(=O)C1(CCCCC1)N2 [CA-129] | 0.00771 |  |  |  | k(Cdk2)/k(Cdk2_mut) rate enhancement ([2]; model thiol Cdk2[C177A, F80C, K278C]): 1.317; Rate constant with Cdk2[C177A, F80C, K278C] (k(Cdk2_mut)) (Cdk2[C177A, F80C, K278C]): 0.00208
2 |  |  | 0.6915 | 0.02965 | 0.3102 | 0.7334 | 0.7654 | 3.076 | 0.1319 | 1.268 | 0.05436 | 0.285 | 0.01222 | 0.247 | 0.01059 | C=CC(=O)N1CCn2c(C(=O)NC3CC3)ccc2C1C (stereo not shown) [CA-040/230] |  | 0.04288 | 0.03145 | 0.03282 | Rate constant with Cdk2 F80C (Cdk2(C177A, F80C); Protein: Cdk2, cysteine position F80C, in h^-1): 0.0133
3 | 0.00205 | 0.6425 | 0.6483 | 0.002046 | 0 | 0 | 0 | 1.155 | 0.003646 | 1.904 | 0.00601 | 0.846 | 0.00267 | 2.572 | 0.008117 | C=CC(=O)N1CC(OCCN(CC)CC)C1 [CA-145] | 0.00318 | 0.003156 |  |  | 

Row | SMILES | Rate constant with Cdk2 (k(Cdk2)) [2] | k(Cdk2)/k(GSH) rate enhancement [2] | Rate enhancement, Cdk2 WT [2] | Rate constant with Cdk2 WT [2] | Rate enhancement, Cdk2 F80C (Cdk2(C177A, F80C)) | Rate enhancement, Cdk2 H71C (Cdk2(H71C) (C177A)) | Rate enhancement, Cdk2 S276C (Cdk2(S276C) (C177A)) | Rate enhancement, Cdk2 N272 (Cdk2(N272C) (C177A)) | Rate constant with Cdk2 N272C (Cdk2(N272C) (C177A)) | Rate enhancement, Cdk2 T182C (Cdk2(T182C) (C177A)) | Rate constant with Cdk2 T182C (Cdk2(T182C) (C177A)) | Rate enhancement, Cdk2 R122C (Cdk2(R122C) (C177A)) | Rate constant with Cdk2 R122C (Cdk2(R122C) (C177A)) | Rate enhancement, Cdk2 S181C (Cdk2(S181C) (C177A)) | Rate constant with Cdk2 S181C (Cdk2(S181C) (C177A)) | Rate constant with glutathione (k(GSH)) [1] | Rate constant with Glutathione [1] | Rate constant with Cdk2 H71C (Cdk2(H71C) (C177A)) | Rate constant with Cdk2 S276C (Cdk2(S276C) (C177A)) | further results
4 | O=C(CCl)N1CCCCCC1 [EN011] |  |  | 0.6051 | 0.08018 | 0 | 0.08604 | 1.075 | 0.1463 | 0.01938 | 0.4574 | 0.06061 | 0.02161 | 0.002863 | 0.09796 | 0.01298 |  | 0.1325 | 0.0114 | 0.1424 | 
